Entries after “also recorded” stand apart in the source; their conditions may differ.
Tests used:
hairless mice = assay: Rotarod performance study in hairless mice; type: in vivo; conditions: 5% HD topical; for time spent on Rota Rod: 20 rpm, vehicle 60 seconds
Method: Once the mice were trained, the rod was rotated at a constant speed of 20 rpm. Then the mice were placed on the rotating rod and length of time they could stay on the rotating rod was measured.
The Rotarod study was to investigate the skeletal muscle relaxant effects of HD, specifically its impact on motor coordination and balance in hairless mice. The study was structured to assess both the kinetics of HD's effect over time and its efficacy in inducing muscle relaxation. Efficacy of HD was determined post-treatment at intervals of 15, 30, 60, 75, 90 minutes. Control and Treatment Groups: Each stage included a control group receiving vehicle (Aloe Vera Gel) and a test group treated with HD, 5% w/w HD (0.5 g) in the vehicle (9.5 g Aloe Vera Gel). The topical treatment was applied to the thighs of all four limbs for each mouse.

[1] = test system: mouse extensor digitorum longus muscles; assay: Isolated mouse muscle contraction study
Method: FIG. 4 is a schematic diagram of a validated isolated mouse muscle contraction study. The mouse muscles were isolated and placed in a physiological buffer within a tissue bath. Muscles were anchored at one end to the chamber floor and connected at the other end to a force transducer. After establishing a baseline response to the electrical field stimulation, HD was added to the buffer at concentrations ranging from 0.01% w/w to 1% w/w, and the impact on muscle contractile force was recorded over time at the fixed frequency of 150 Hz.
This subsequent study was aimed to elucidate the specific effects of HD on isolated muscle tissue from mice, to quantify its potential use as a muscle relaxant. The study's design allowed for the controlled assessment of muscle contractility in a physiological buffer, minimizing external variables present in in vivo models. Muscle Isolation: The mouse extensor digitorum longus muscles were carefully dissected and mounted in a tissue bath super fused with oxygenated physiological buffer, ensuring tissue viability throughout the experiment (FIG. 4). Baseline Measurement: Initial contractile responses were established via electrical field stimulation at various frequencies, setting a comparative baseline for subsequent HD application effects. HD Application: Differing concentrations of HD (ranging from 0.01% to 1%) were introduced to the buffer. The muscle's contractile force (amplitude, which is the maximum contractile force) was determined to assess HD's concentration-dependent effects (FIG. 6). Stimulation Frequency Adjustment: To explore the frequency-dependent nature of HD's action, muscles underwent varied frequencies of electrical stimulation. This protocol is aimed to simulate conditions of sporadic muscle spasms.

hind limb muscle = assay: Rat hind limb muscle twitch study; type: in vivo, Sprague-Dawley rats
Method: Adverting now to the drawings, FIG. 1 is a schematic diagram of a validated muscle twitch experimental set-up in the present disclosure. Here, anesthetized Sprague-Dawley rats were prepared for muscle contraction assessment of their hind limbs. The hind limbs were shaved and secured at the knee and ankle joints to prevent movement. The distal tendon of the targeted muscle was connected to a high-sensitivity force transducer to measure contractile force with precision. Electrical stimulation was delivered via electrodes positioned on the sciatic nerve to evoke muscle contractions. Vehicle (control study) or 5% w/w of HD was topically applied to the dermal area corresponding to the muscle group under study, ensuring proximity for local diffusion and effect. A study was performed to evaluate the effects of HD on muscle contractility using a validated in vivo rat model. The experimental setup was meticulously designed to measure the contractile force of the hind limb muscle in response to electrical stimulation of the sciatic nerve, providing a quantitative assessment of muscle relaxation and contraction dynamics in the presence of HD. Anesthetized Sprague-Dawley rats were used for this study, ensuring minimal variability in response to HD application. Hind limbs were shaved and then immobilized at the knee and ankle joints to isolate the effect to the targeted muscle group. […]

**Q.** Which “recovery from the muscle relaxant effect” value (hairless mice) does the source give for `CCCCC(O)CO` (centres unmarked) [HD, 1,2-hexanediol] here?
**A.** The value was “complete recovery of all mice”.

**Q.** And the “time spent on Rota Rod” value (hairless mice; 30 minutes post treatment)?
**A.** The value was “significant decrease”.

**Q.** What about the “time spent on Rota Rod” value (hairless mice; 60 minutes post treatment) of the same compound?
**A.** The value was “significant decrease”.

**Q.** What about the “inhibitory effect on muscle contraction” value ([1]; 0.01% HD in buffer, 150 Hz) of the same compound?
**A.** Its value is “minimal effects; also recorded: No significant inhibitory effect”.

**Q.** And the “reduction in contractile force” value ([1]; 0.1% HD in buffer, 150 Hz, vs vehicle controls)?
**A.** The value was “about 44%”.

**Q.** And the “torque generation against stimulus frequency” value ([1]; 0.5% HD vs vehicle, n=5, p<0.01)?
**A.** Its value is “frequency-dependent decrease in torque generation; also recorded: inhibition is more complete at higher frequencies of stimulation”.

**Q.** What about the “duration of muscle contraction” value (hind limb muscle; 5% w/w HD topical vs vehicle, p<0.05) of the same compound?
**A.** Its value is “statistically significant reduction”.

**Q.** And the “ability to maintain tetanic contraction during the stimulus period” value (hind limb muscle; 5% w/w HD topical, electrical stimulation at 150 Hz)?
**A.** Its value is “failing to maintain tetanic tension; also recorded: unable to maintain tetanic contraction”.

— US20250186365A1, “COMBINATION OF ANTISPASMODIC AND OSMOTIC AGENTS FOR TOPICAL PRODUCTS AND METHOD OF USE THEREOF” (priority 2023, published 2025)
